Literature values as cited in patent US6683112B2, “Gabapentin prodrugs and formulations” (Andrx Corporation, priority 2000, dated 2004).

Assays:
[1] = in water and in both basic and acidic conditions

NCC1(CC(=O)O)CCCCC1 [Gabapentin, 1-(aminomethyl)cyclohexaneacetic acid]
metabolism (in humans): not extensively metabolized | route of elimination (in humans): eliminated via renal excretion essentially unchanged | oral bioavailability (typical dosage range 300-600 mgs T.I.D.): approximately sixty | elimination half life (unaltered by dose or following multiple dosing): five to seven | solubility [1]: highly soluble
